This note sets out measurements from US4593104A, “2-halo-N-(azole-1-yl-methyl)-substituted acetanilides” (BASF Aktiengesellschaft, priority 1976, dated 1986).

In test [1] the test system is Alopec. myosur. Briefly: Table 13, % damage. The test is classed as in vivo. From the text: (§1) The vessels employed were plastic flowerpots having a volume of 300 cm^3; the substrate was a sandy loam containing about 1.5% humus. The seeds of the test plants (see Table 1) were sown shallow, and separated according to species. In the case of Cyperus esculentus, pregerminated tubers were planted. In the preemergence treatment, the active ingredients were then immediately applied to the surface of the soil. They were suspended or emulsified in water as the vehicle, and sprayed through atomizing nozzles. After the agents had been applied, the vessels were lightly sprinkler-irrigated to set germination and growth going, and to activate the chemical agents. The vessels were then covered with transparent plastic hoods until the plants had taken root. This cover ensured uniform germination of the test plants (to the extent that this was not impaired by the chemicals), and prevented readily volatile substances from evaporating.
(§2) For postemergence treatment, the plants were first grown to a height of from 3 to 10 cm, depending on their habit, before treated. Hoods were not placed on the pots. The experiments were set up in the greenhouse, hotter areas (25° to 40° C.) being preferred for heat-loving species, and 15° to 30° C. for plants from moderate climates. The experiments were carried out for from 4 to 6 weeks. During this period the plants were tended and their reaction to the various treatments was assessed. The following tables contain the substances investigated, the application rates in kg/ha of active ingredient, and the test plant species. Assessments were made on a 0 to 100 scale, 0 denoting no damage or normal emergence, and 100 denoting no emergence or complete destruction of at least the visible plant parts.

The next test relates to Setar. spp. Briefly: Table 13, % damage. Format: in vivo.
Text: as §1, §2

The next test has as its system Echin c.g. Briefly: Table 13, % damage. The test is classed as in vivo.
Text: as §1, §2

For test [2], the system named is Beta vulg. As to the kind of experiment: Table 13, % damage. The test is classed as in vivo, Beta vulgaris.
Text: as §1, §2

In the next test the test system is Setaria spp. As to the kind of experiment: preemergence treatment in the greenhouse, % damage. The test is classed as in vivo. In short, it runs like this: (§3)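 Sow shallow in sandy loam, spray actives (water vehicle) on soil at once for preemergence, irrigate, hood until rooting; or grow to 3–10 cm and spray unhooded for postemergence. Keep 4–6 weeks at 15–40 °C by species, then score damage 0–100.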

For a further test, the system named is Cyperus ferax. Briefly: preemergence treatment in the greenhouse, % damage. The test is classed as in vivo. In short, it runs like this:
as §3

Test [3] has as its system Alopec. myosur. Briefly: preemergence treatment in the greenhouse, % damage. The test is classed as in vivo. In outline:
as §3

In the next test the test system is Echin. c.g. As to the kind of experiment: preemergence treatment in the greenhouse, % damage. Format: in vivo. In outline:
as §3

For the next test, the system named is Bromus spp. Briefly: preemergence treatment in the greenhouse, % damage. Format: in vivo. In outline: as §3
Another test deals with Matric. spp. Briefly: preemergence treatment in the greenhouse, % damage. The test is classed as in vivo. In outline: as §3
For test [4], the system named is Beta vulg. As to the kind of experiment: preemergence treatment in the greenhouse, % damage. The test is classed as in vivo, Beta vulgaris. In outline:
as §3

In the next test the test system is Glyc. max. As to the kind of experiment: preemergence treatment in the greenhouse, % damage. The test is classed as in vivo, Glycine max. In short, it runs like this:
as §3

The test system of a further test is Brassica napus. As to the kind of experiment: preemergence treatment in the greenhouse, % damage. The test is classed as in vivo. Particulars: 1.0 kg/ha. In short, it runs like this:
as §3

The subject of another test is Solanum nigrum. As to the kind of experiment: preemergence treatment in the greenhouse, % damage. Format: in vivo. Particulars: 1.0 kg/ha. In short, it runs like this:
as §3

The subject of a further test is Zea mays. As to the kind of experiment: preemergence treatment in the greenhouse, % damage. Format: in vivo. Conditions: 1.0 kg/ha. In short, it runs like this:
as §3

On to `Cc1cccc(C)c1N(Cn1ccnc1)C(=O)CCl`, for which the “% damage” value in the test on Alopec. myosur. [1] (appl. rate 1.0) was found to be 20%; with Setar. spp. (appl. rate 1.0), 20%; with Echin c.g. (appl. rate 1.0), 40%; in the test with Beta vulg. [2] (appl. rate 1.0), 0%.

With `Cc1cccc(C)c1N(Cn1cnc(Cl)c1Cl)C(=O)CCl`, the “% damage” value with Alopec. myosur. [1] (appl. rate 0.5) was found to be 80%; with Alopec. myosur. [1] (appl. rate 1.0) it was 80%; with Setar. spp. (appl. rate 0.5), 100%; with Setar. spp. (appl. rate 1.0) it was 100%; in the test on Echin c.g. (appl. rate 0.5) it was 100%; with Echin c.g. (appl. rate 1.0) it was 100%. The “% damage” value in the test with Beta vulg. [2] (appl. rate 0.5) and in the test on Beta vulg. [2] (appl. rate 1.0) was 0% each time.

With `CCc1cccc(C)c1N(Cn1cnc(Cl)c1Cl)C(=O)CCl`, the “% damage” value with Alopec. myosur. [1] (appl. rate 0.5), in the test on Alopec. myosur. [1] (appl. rate 1.0), with Setar. spp. (appl. rate 0.5), in the test with Setar. spp. (appl. rate 1.0), in the test with Echin c.g. (appl. rate 0.5) and with Echin c.g. (appl. rate 1.0) was 100% throughout. The “% damage” value in the test on Beta vulg. [2] (appl. rate 0.5) and in the test on Beta vulg. [2] (appl. rate 1.0) was 0% in each case.

In the case of `CCc1cccc(CC)c1N(Cn1cc(OC)cn1)C(=O)CCl`, the “% damage” value in the test on Setaria spp. (1.0 kg/ha) turned out to be 100%; in the test with Setaria spp. (2.0 kg/ha), 100%; in the test on Cyperus ferax (1.0 kg/ha) it was 100%; with Cyperus ferax (2.0 kg/ha), 100%; in the test with Alopec. myosur. [3] (1.0 kg/ha), 99%; in the test with Alopec. myosur. [3] (2.0 kg/ha), 99%. The “% damage” value in the test with Echin. c.g. (1.0 kg/ha) was found to be 100%; in the test with Echin. c.g. (2.0 kg/ha), 100%; with Bromus spp. (1.0 kg/ha), 98%; with Bromus spp. (2.0 kg/ha) it was 98%; with Matric. spp. (1.0 kg/ha) it was 90%; with Matric. spp. (2.0 kg/ha) it was 98%. For the same molecule, the “% damage” value with Beta vulg. [4] (1.0 kg/ha) was 10%; with Beta vulg. [4] (2.0 kg/ha), 15%; with Glyc. max (1.0 kg/ha) it was 0%; in the test with Glyc. max (2.0 kg/ha), 0%.

As to `Cc1cc(C)n(CN(C(=O)CCl)c2ccccc2C)n1`, the “% damage” value was found to be 60% in the test with Setaria spp. (1.0 kg/ha); 85% with Alopec. myosur. [3] (1.0 kg/ha); 85% in the test on Echin. c.g. (1.0 kg/ha); 10% in the test with Brassica napus; 95% with Bromus spp. (1.0 kg/ha); 90% in the test with Matric. spp. (1.0 kg/ha). In addition, the entries for the “% damage” value in the test on Solanum nigrum and with Zea mays were 100% and 0%, respectively.
